{"source": "PubChem BioAssay AID1259410", "about": "(Chemical Carcinogenesis Research Information System (CCRIS), 2018)", "origin": "cited, not measured here", "test_system": "rodent tumor promotion studies, tumor incidence", "experiment": "CCRIS tumor promotion studies", "data": [{"smiles": "O=C1O[C@H]([C@@H](O)CO)C(O)=C1O", "values": [{"measurement": "outcome", "setting": "Carcinogen: 1,2-DIMETHYLHYDRAZINE, 540-73-8, Doses [Carcinogen]: 20 MG/KG 1/WK FOR 4 WK, Doses [Promoter]: 0, 5% IN DIET FOR 36 WK (STUDY DURATION: 40 WK), Route [Carcinogen]: SUBCUTANEOUS, Route [Promoter]: ORAL, Species: RAT, Strain/Sex: F344/MALE", "value": "colon: tumor"}, {"measurement": "outcome", "setting": "Carcinogen: BUTYLATED HYDROXYANISOLE, 25013-16-5, Doses [Carcinogen]: 2% IN DIET FOR 1 YR, Doses [Promoter]: 0, 2% IN DIET CONCOMITANTLY WITH CARCINOGEN FOR 1 YR (STUDY DURATION: 1 YR), Route [Carcinogen]: ORAL, Route [Promoter]: ORAL, Species: RAT, Strain/Sex: F344/MALE", "value": "forestomach: squamous cell carcinoma"}, {"measurement": "outcome", "setting": "Carcinogen: METHYLNITROSOUREA, 684-93-5, Doses [Carcinogen]: 20 MG/KG 2/WK FOR 4 WK, Doses [Promoter]: 0, 5% IN DIET BEGINNING POST CARCINOGEN TREATMENT AND CONTINUING FOR 32 WK (STUDY DURATION: 36 WK), Route [Carcinogen]: INTRAPERITONEAL, Route [Promoter]: ORAL, Species: RAT, Strain/Sex: F344/MALE", "value": "urinary bladder: papilloma; forestomach: carcinoma"}, {"measurement": "outcome", "setting": "Carcinogen: N-BUTYL-N-4(HYDROXYBUTYL)NITROSAMINE, 3817-11-6, Doses [Carcinogen]: 0.05% IN DRINKING WATER FOR 2 WK, Doses [Promoter]: 0, 5% IN DIET STARTING POST CARCINOGEN AND CONTINUING FOR 22 WK, LEFT URETER LIGATED 8 D POST CARCINOGEN (STUDY DURATION, Route [Carcinogen]: ORAL, Route [Promoter]: ORAL, Species: RAT, Strain/Sex: F344/MALE", "value": "bladder: papilloma"}, {"measurement": "outcome", "setting": "Carcinogen: N-BUTYL-N-(4-HYDROXYBUTYL)-NITROSAMINE, 3817-11-6, Doses [Carcinogen]: 0.05% IN DRINKING WATER FOR 4 WK, Doses [Promoter]: 0, 5% IN DIET FOR 32 WK BEGINNING POST CARCINOGEN TREATMENT (STUDY DURATION: 36 WK), Route [Carcinogen]: ORAL, Route [Promoter]: ORAL, Species: RAT, Strain/Sex: F344/MALE", "value": "urinary bladder: papilloma, carcinoma"}, {"measurement": "outcome", "setting": "Carcinogen: N-BUTYL-N-(4-HYDROXYBUTYL)-NITROSAMINE, 3817-11-6, Doses [Carcinogen]: 0.05% IN DRINKING WATER FOR 4 WK, Doses [Promoter]: 0, 5% IN DIET FOR 32 WK BEGINNING POST CARCINOGEN TREATMENT (STUDY DURATION: 36 WK), Route [Carcinogen]: ORAL, Route [Promoter]: ORAL, Species: RAT, Strain/Sex: LEW/MALE", "value": "urinary bladder: papilloma, carcinoma"}, {"measurement": "outcome", "setting": "Carcinogen: N-BUTYL-N-(4-HYDROXYBUTYL)NITROSAMINE [3817-11-6], Doses [Carcinogen]: 0.05% IN DRINKING WATER FOR 4 WK (STUDY DURATION: 40 WK), Doses [Promoter]: 2.5% IN DIET FOR 18 WK BEGINNING IMMEDIATELY POST LAST CARCINOGEN DOSE (STUDY DURATION: 40 WK), Route [Carcinogen]: ORAL, Route [Promoter]: ORAL, Species: RAT, Strain/Sex: F344/MALE", "value": "urinary bladder: tumor"}, {"measurement": "outcome", "setting": "Carcinogen: N-BUTYL-N-(4-HYDROXYBUTYL)NITROSAMINE, 3817-11-6, Doses [Carcinogen]: 0.05% IN DRINKING WATER FOR 2 WK, Doses [Promoter]: 0, 5% IN DIET FOR 32 WK BEGINNING POST CARCINOGEN TREATMENT (STUDY DURATION: 34 WK), Route [Carcinogen]: ORAL, Route [Promoter]: ORAL, Species: RAT, Strain/Sex: F344/MALE", "value": "urinary bladder: papilloma, carcinoma"}, {"measurement": "outcome", "setting": "Carcinogen: N-BUTYL-N-(4-HYDROXYBUTYL)NITROSAMINE, 3817-11-6, Doses [Carcinogen]: 0.05% IN DRINKING WATER FOR 4 WK, Doses [Promoter]: 0, 5% IN BASAL DIET CONTAINING 1.5% SODIUM BICARBONATE FOR 32 WK (STUDY DURATION: 36 WK), Route [Carcinogen]: ORAL, Route [Promoter]: ORAL, Species: RAT, Strain/Sex: F344/MALE", "value": "urinary bladder: carcinoma"}, {"measurement": "outcome", "setting": "Carcinogen: N-BUTYL-N-(4-HYDROXYBUTYL)NITROSAMINE, 3817-11-6, Doses [Carcinogen]: 0.05% IN DRINKING WATER FOR 4 WK, Doses [Promoter]: 0, 5% IN DIET FOR 32 WK (STUDY DURATION: 36 WK), Route [Carcinogen]: ORAL, Route [Promoter]: ORAL, Species: RAT, Strain/Sex: F344/MALE", "value": "urinary bladder: papilloma, carcinoma"}, {"measurement": "outcome", "setting": "Carcinogen: N-BUTYL-N-(4-HYDROXYBUTYL)NITROSAMINE, 3817-11-6, Doses [Carcinogen]: 0.05% IN DRINKING WATER FOR 4 WK, Doses [Promoter]: 0, 5% IN DIET FOR 32 WK BEGINNING POST CARCINOGEN TREATMENT (STUDY DURATION: 36 WK), Route [Carcinogen]: ORAL, Route [Promoter]: ORAL, Species: RATS, Strain/Sex: F344/SHI/MALE", "value": "bladder: papilloma, carcinoma"}, {"measurement": "outcome", "setting": "Carcinogen: N-BUTYL-N-(4-HYDROXYBUTYL)NITROSAMINE, 3817-11-6, Doses [Carcinogen]: 0.05% IN DRINKING WATER FOR 4 WK, Doses [Promoter]: 0, 5% IN DIET FOR 32 WK POST CARCINOGEN DOSE (STUDY DURATION: 36 WK), Route [Carcinogen]: ORAL, Route [Promoter]: ORAL, Species: RAT, Strain/Sex: F344/MALE", "value": "bladder: carcinoma or papilloma"}, {"measurement": "outcome", "setting": "Carcinogen: N-METHYL-N-NITROSOUREA, 684-93-5, Doses [Carcinogen]: 20 MG/KG 2/WK FOR 4 WK, Doses [Promoter]: 0, 5% IN DIET FOR 32 WK (STUDY DURATION: 32 WK), Route [Carcinogen]: INTRAPERITONEAL, Route [Promoter]: ORAL, Species: RAT, Strain/Sex: F344/MALE", "value": "forestomach: papilloma, carcinoma; urinary bladder: papilloma, carcinoma"}, {"measurement": "outcome", "setting": "Carcinogen: N-[4-(5-NITRO-2-FURYL)-2-THIAZOLYL]FORMAMIDE, 24554-26-5, Doses [Carcinogen]: 0.2% IN DIET FOR 6 WK, Doses [Promoter]: 0, 5% IN PROLAB DIET FOR 72 WK BEGINNING POST CARCINOGEN TREATMENT (STUDY DURATION: 78 WK), Route [Carcinogen]: ORAL, Route [Promoter]: ORAL, Species: RAT, Strain/Sex: F344/MALE", "value": "urinary bladder: carcinoma, carcinoma or papilloma"}, {"measurement": "outcome", "setting": "Carcinogen: N-bis(2-hydroxypropyl)nitrosamine (DHPN) (53609-64-6), Doses [Carcinogen]: 0.1% (w/v) in drinking water for 3 wk, then surgery for acid reflux esophagitis, study duration 34 wk, Doses [Promoter]: 0 (basal diet), 1% ascorbic acid, 1% ascorbic acid with 0.2% sodium nitrite, study duration 32 wk after first promoter d, Doses [Promoter]: 0 (basal diet), 1% ascorbic acid, 1% ascorbic acid with 0.2% sodium nitrite, study duration 32 wk after first promoter d, Route [Carcinogen]: Oral, Route [Promoter]: Oral, Species: Rat, Strain/Sex: F344/Male (24/group)", "value": "esophagus (p1-p4): papilloma; significant only for combined treatment in p4 segm"}, {"measurement": "outcome", "setting": "Carcinogen: N-methyl-N'-nitro-N-nitrosoguanidine (70-25-7), Doses [Carcinogen]: 0.01% in drinking water for 10 wk for initiation of glandular stomach tumors, 100 mg/kg intragastrically after 16 hr st, Doses [Promoter]: 0.1% or 1.0% in the diet from wk 11 to end of study in combination with 0.05%, 0.1%, or 0.2% sodium nitrite in drinki, Route [Carcinogen]: Oral and Intragastric, Route [Promoter]: Oral, Species: Rat, Strain/Sex: F344/Male (15/15)/(14/15)(15/15)(15/15)(15/15)(15/15)(14/15)", "value": "forestomach: squamous cell carcinoma, papilloma increased in incidence and/or se"}]}, {"smiles": "CC(=O)Nc1ccc2c(c1)C(=O)c1ccccc1-2", "values": [{"measurement": "outcome", "setting": "Carcinogen: DIETHYLNITROSAMINE, 55-18-5, Doses [Carcinogen]: 200 MG/KG BW IN 0.9% SALINE ONCE, Doses [Promoter]: 0, 0.1 MMOL/KG BW IN POLYETHYLENE GLYCOL FOR 5 D BEGINNING 1 WK POST CARCINOGEN DOSE, 70% HEPATECTOMY PERFORMED 3 D AFTE, Route [Carcinogen]: INTRAPERITONEAL, Route [Promoter]: GAVAGE, Species: RAT, Strain/Sex: SPRAGUE-DAWLEY/MALE", "value": "liver: hepatocellular carcinoma"}]}, {"smiles": "CCCCCCCCCCCCO", "values": [{"measurement": "outcome", "setting": "Carcinogen: 7,12-DIMETHYLBENZ(A)ANTHRACENE, Doses [Carcinogen]: TOP, Route [Carcinogen]: DERMAL, Route [Promoter]: DERMAL, Species: MOUSE, Strain/Sex: FEMALE", "value": "integumentary system (skin)"}]}, {"smiles": "C=C[C@@](C)(CCC=C(C)C)c1ccc2c3c(c[nH]c13)C[C@@H](CO)NC(=O)[C@H](C(C)C)N2C", "values": [{"measurement": "outcome", "setting": "Carcinogen: 7,12-DIMETHYLBENZ[A]ANTHRACENE, 57-97-6, Doses [Carcinogen]: 100 UG IN 0.1 ML ACETONE, Doses [Promoter]: 0, 3 UG IN 0.1 ML ACETONE 2/WK FOR 29 WK BEGINNING 1 WK POST CARCINOGEN DOSE (STUDY DURATION: 30 WK), Route [Carcinogen]: DERMAL, Route [Promoter]: DERMAL, Species: MOUSE", "value": "skin: tumor"}, {"measurement": "outcome", "setting": "Carcinogen: DIMETHYLBENZ[A]ANTHRACENE, 57-97-6, Doses [Carcinogen]: 100 UG IN 100 µL ACETONE APPLIED TO THE BACK ONCE, Doses [Promoter]: 2.5 UG IN 100 µL ACETONE APPLIED TO THE BACK FOR 30 WK BEGINNING 1 WK POST CARCINOGEN DOSE (STUDY DURATION: 31 WK), Route [Carcinogen]: DERMAL, Route [Promoter]: DERMAL, Species: MOUSE, Strain/Sex: CD-1/FEMALE", "value": "skin: papilloma"}]}]}
